Common to all, as to test: DTP human tumour cell line panel, 48 h
In assay [1] the test system is KM12 colon.
The subject of assay [2] is HCC-2998 colon.
In assay [3] the test system is HS 578T breast.
Assay [4] relates to M14 melanoma.
Assay [5] relates to NCI-H23 lung.
Assay [6] concerns T-47D breast.
Assay [7] has as its system A549 NSCLC.
Assay [8] deals with EKVX NSCLC.
The test system of assay [9] is SW-620 colon.
Assay [10] has as its system TK-10 renal.

Several values for one entry are separate records, joined by “and”; a condition that tells them apart may be missing. Equal entries are not always repeated.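 A five-concentration, 48-hour dose response in 96-well plates underlies each endpoint, interpolated linearly between surrounding concentrations. TGI denotes the concentration required for complete inhibition of growth.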

In the case of `Clc1ccc2c(c1)N(CCCN1CCCC13CCCCC3)c1ccccc1S2`, the TGI in assay [1] turned out to be 27.7 µM; in assay [2] it was 8.64 µM; in assay [3] it was 34.2 µM; in assay [4], 27.3 µM; in assay [5] it was 44.2 µM; in assay [6], 30 µM. Also, the TGI was 40.2 µM in [7], above 44 µM in assay [8], 40.7 µM in assay [9] and 29.7 µM in assay [10].
`COC(=O)C1OC(O[C@H]2CC[C@]3(C)[C@H]4CC=C5[C@@H]6CC(C)(C)CC[C@]6(C(=O)OC6OCC(O)C(O)C6OC6OC(C)C(OC7OCC(O)C(O)C7O)C(O)C6O)[C@H](O)C[C@@]5(C)[C@]4(C)CC[C@H]3C2(C)C)C(O)C(O)C1O` (stereo not given in full): the TGI in assay [1] was 13.1 µM and 13 µM; in assay [2], 6.71 µM and 3.44 µM; in assay [3] it was 35.9 µM and 35.2 µM; in [4], 7.65 µM and 14.8 µM; in assay [5] it was 4.76 µM and 6.24 µM; in assay [6], > 100 µM and 27.2 µM. Further, the TGI is 11.8 µM and 14.6 µM in assay [7]; 8.04 µM and 11.1 µM in assay [8]; > 57 µM and 27.2 µM in [9]; 21.3 µM and 21.5 µM in assay [10].
Regarding `CC(C)(C)C1CCC2c3c([nH]c4ccccc34)C3C(=O)N(c4ccc([N+](=O)[O-])cc4)C(=O)C3C2C1` (stereo not given), the TGI in assay [1] is 35.7 µM; in assay [2] it was 27.4 µM; in assay [3], 39.3 µM; in assay [4], 86.2 µM; in assay [5], 33.7 µM; in assay [6] it was above 100 µM. Moreover, the total growth inhibition concentration (TGI) in assay [7] is 62.1 µM; in assay [8], above 100 µM; in assay [9] it was above 100 µM; in assay [10], 78.2 µM.
As to `Cc1c(C)c2c(c(N)c1C#N)C(=O)N(N)C2=O`, the TGI in assay [1], in [2], in [3], in [4], in assay [5] and in assay [6] was above 100 µM throughout. Also, the TGI in assay [7], in [8], in assay [9] and in assay [10] was above 100 µM each time.
Take `COc1ccc(-c2ccc(C(=O)C=P(c3ccccc3)(c3ccccc3)c3ccccc3)cc2)cc1`: the TGI in assay [1] came out at 36.6 µM; in [2] it was 15.2 µM; in assay [3] it was 67.6 µM; in assay [4], 31.6 µM; in [5], 51 µM; in assay [6], 62.3 µM. Also, the TGI in assay [7] turned out to be 25.9 µM; in assay [8], 38.6 µM; in assay [9], 37.8 µM; in [10] it was 47.1 µM.
For `C/C(=C1\N=C(c2ccccc2)OC1=O)c1ccccc1`, the TGI in assay [1], in assay [2], in assay [3], in assay [4], in assay [5] and in assay [6] was above 100 µM each time. Further, the TGI in [7], in [8], in assay [9] and in assay [10] was above 100 µM each time.
For the compound `CC(Nc1ccc(Cl)cc1)c1ccncc1` (stereo not given), the TGI in assay [1], in assay [2], in [3], in [4], in assay [5] and in assay [6] was above 100 µM in each case. In addition, the TGI in [7], in [8], in [9] and in assay [10] was above 100 µM in each case.
Take `CCOC(=O)c1c(N)sc2c1C(C(=O)OCC)CCCC2` (stereo not given): the TGI in [1] was above 100 µM; in assay [2] it was above 100 µM; in [3], above 100 µM; in assay [4], above 100 µM; in assay [5], above 100 µM; in assay [6] it was 78.3 µM. In addition, the concentration for total growth inhibition (TGI) in assay [7], in assay [8], in assay [9] and in assay [10] was above 100 µM in each case.
For `COc1ccc(N2C(=O)C3c4[nH]c5c(C)cccc5c4C4CCC(C(C)C)CC4C3C2=O)cc1` (stereo not given), the TGI in assay [1] stood at 19.9 µM; in [2], 28.8 µM; in [3], 27.7 µM; in assay [4], 26.8 µM; in assay [5], 40.7 µM; in assay [6], 48.6 µM. Moreover, the TGI is above 100 µM in assay [7], 40.6 µM in assay [8], 45.7 µM in [9] and 76.8 µM in assay [10].
Regarding `CCc1nc(N)c2nc(-c3cccs3)oc2n1`, the TGI in assay [1], in [2], in assay [3], in assay [4], in [5] and in assay [6] was above 100 µM in each case. Also, the TGI in assay [7], in assay [8], in [9] and in assay [10] was above 100 µM in each case.
As to `C=C1CCC[C@@H](C)C(O)[C@@H]2OC(=O)C(=C)[C@@H]2C[C@@H](OC(C)=O)[C@@]2(C)CC[C@@H]1O2` (stereo not given in full), the TGI in assay [1] came to 14.6 µM; in assay [2], 14.9 µM; in assay [3], 29.4 µM; in [4], 13.6 µM; in [5], 15.2 µM; in [6] it was 19.2 µM. The TGI in assay [7] is above 50 µM; in assay [8], 15.1 µM; in assay [9] it was 16.7 µM; in [10] it was 14.8 µM.
`N#CCCC(C=O)(CCC#N)CCC#N`: the TGI in assay [1], in assay [2], in assay [3], in assay [4], in assay [5] and in [6] was above 100 µM each time. In addition, the TGI in assay [7], in assay [8], in assay [9] and in assay [10] was above 100 µM each time.
In the case of `O=P1(N(CCCl)CCCl)Oc2ccc(Cl)cc2C(C(Cl)(Cl)Cl)c2cc(Cl)ccc2O1` (stereo not given), the TGI in assay [1] is 33.4 µM; in assay [2] it was 34.3 µM; in assay [3], 41 µM; in assay [4] it was 98.4 µM; in [5], above 100 µM; in [6], above 100 µM. Further, the TGI was above 100 µM in assay [7], above 100 µM in [8], above 100 µM in assay [9] and 89.5 µM in [10].
Take `CCCCCC[C@H]([C@H](C)O)n1cnc2c(N)ncnc21`: the concentration for total growth inhibition (TGI) in assay [1], in [2], in assay [3], in assay [4], in assay [5] and in assay [6] was above 100 µM in each case. The TGI in [7], in assay [8], in assay [9] and in assay [10] was above 100 µM throughout.
On to `Clc1ccc2c(NCCCCCCNc3ccnc4cc(Cl)ccc34)ccnc2c1`, for which the TGI in [1] is 7.88 µM; in assay [2], 3.32 µM; in assay [3], above 48.8 µM; in assay [4], 3.51 µM; in [5] it was 31.5 µM; in assay [6], 5.42 µM. The TGI was 20.7 µM in assay [7], 25.9 µM in assay [8], 3.78 µM in [9] and 18.2 µM in assay [10].

Source of the values: PubChem BioAssay (NCI).
